Earlier results as cited in patent US10113000B2, “Combination therapies for B-cell lymphomas comprising administration of anti-CD20 antibody” (BIOGEN INC., priority 1998, dated 2018).

B1: IL-4: cytokine (protein, UniProt P05112 25-153, looked up)
Interleukin-4: HKCDITLQEIIKTLNSLTEQKTLCTELTVTDIFAASKNTTEKETFCRAATVLRQFYSHHEKDTRCLGATAQQFHRHKQLIRFLKRLDRNLWGLAGLNSCPVKEANQSTLENFLERLKTIMREKYSKCSS

Experiments:
[1] = system: mononuclear cells from CLL patients; details: incubated for 24 hours
[2] = system: multiple myeloma (MM) patient plasma cells

Row | Molecule | CD20 expression by flow cytometry [1] | binding of cells to Rituximab ([2]; MM plasma cells, patient B-cells, normal donor B-cells) | concentration at which plateau of CD20 induction occurred ([2]; at 48 hours) | concentration at which CD20 upregulation is seen ([2]; plasma cells, dose dependent)
1 | GM-CSF: cytokine | significant up-regulation | – | – | –
2 | TNF-alpha | significant up-regulation | – | – | –
3 | gamma-interferon: cytokine | – | augments binding | 100 U/ml | 1 U/ml
4 | B1 | significant up-regulation | – | – | –
